# Experimental data: patent US20240409585A1, “MACROCYCLIC IMMUNOMODULATORS” (priority 2021, published 2024)
# Bridge positions count the residues as written; N and C are the ends. Square brackets hold non-standard residues; d marks the D form. Peptide text beside a SMILES is read from it. * marks the point of attachment. ξ: configuration not given here. Trp(1-CH2COOH) = N[C@@H](Cc1cn(CC(=O)O)c2ccccc12)C(=O)O; Phe(4-COOH) = N[C@@H](Cc1ccc(C(=O)O)cc1)C(=O)O; Bip = N[C@@H](Cc1ccc(-c2ccccc2)cc1)C(=O)O; Phe(3-CN) = N#Cc1cccc(C[C@H](N)C(=O)O)c1; Phe(3-Me) = Cc1cccc(C[C@H](N)C(=O)O)c1; Val(3-OH) = CC(C)(O)[C@H](N)C(=O)O; 4Pal = N[C@@H](Cc1ccncc1)C(=O)O; Cha = N[C@@H](CC1CCCCC1)C(=O)O; Cit = NC(=O)NCCC[C@H](N)C(=O)O; Ile(3ξ) = CCC(C)[C@H](N)C(=O)O; Thr(3ξ) = CC(O)[C@H](N)C(=O)O; Carboxymethyl = O=C(O)C*; NMeA = CN[C@@H](C)C(=O)O; Nle = CCCC[C@H](N)C(=O)O; Orn = NCCC[C@H](N)C(=O)O; Dab = NCC[C@H](N)C(=O)O; Dap = NC[C@H](N)C(=O)O; Piv = CC(C)(C)C(=O)*
# Biological target: T1, PE-labeled human PD-L1-Ig binding to Jurkat cell line over-expressing human PD-1 (Jurkat-PD-1) (Homo sapiens, UniProt Q15116)
# T1 construct: expressed in transfected cells; host or cells: Jurkat
# T1 sequence (Q15116 25-288): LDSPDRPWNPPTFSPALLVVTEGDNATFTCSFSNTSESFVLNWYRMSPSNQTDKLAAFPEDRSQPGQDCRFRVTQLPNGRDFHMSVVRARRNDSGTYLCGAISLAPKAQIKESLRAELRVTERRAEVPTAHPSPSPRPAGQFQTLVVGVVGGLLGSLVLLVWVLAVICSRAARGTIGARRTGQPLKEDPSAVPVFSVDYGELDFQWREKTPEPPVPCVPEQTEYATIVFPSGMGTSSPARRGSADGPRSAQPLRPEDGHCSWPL
# Experiment: Jurkat-PD-1 Cell Binding High-Content Screening Assay (CBA): Method 1
# Conditions: Jurkat-hPD-1 cells, PE-labeled PD-L1-Ig 20 nM final; read-out: Jurkat HPDL1 PD1 IC50 (uM) (Method 1)
row,SMILES,IC50
1,CC(C)C[C@@H]1NC(=O)[C@H](CCN)NC(=O)[C@@H](CC(C)C)NC(=O)[C@H](C)N(C)C(=O)[C@H](CCC(=O)O)NC(=O)[C@H](Cc2ccc(-c3ccccc3)cc2)NC(=O)[C@H](C(C)C)NC(=O)[C@H](Cc2c[nH]c3ccccc23)NC(=O)[C@H](CC(=O)O)NC(=O)[C@H](Cc2ccc(OCC(=O)O)cc2)NC(=O)[C@H](Cc2ccc(OCC(=O)O)cc2)NC(=O)CSC[C@@H](C(=O)N[C@@H](C)C(N)=O)NC(=O)[C@H](CO)NC(=O)[C@H](C(C)C)NC1=O [Compound 1577] ({CH2CO}-Y(Carboxymethyl)Y(Carboxymethyl)DWV[Bip]E[NMeA][dL][Dab]LVSCA-NH2; thioether N-14),0.03 µM
2,CCCC[C@@H]1NC(=O)[C@H](CC(N)=O)NC(=O)[C@@H](C)NC(=O)[C@H](C)N(C)C(=O)[C@H](C(C)C)NC(=O)[C@H](Cc2ccc(-c3ccccc3)cc2)NC(=O)[C@H](CC(C)C)NC(=O)[C@H](Cc2c[nH]c3ccccc23)NC(=O)[C@H](CC(=O)O)NC(=O)[C@H](Cc2ccc(O)cc2)NC(=O)[C@H](Cc2ccccc2)NC(=O)CSC[C@@H](C(=O)N[C@@H](C)C(N)=O)NC(=O)[C@H]([C@@H](C)O)NC(=O)[C@H](C(C)C)NC1=O [Compound 1778] ({CH2CO}-FYDWL[Bip]V[NMeA][dA]N[Nle]VTCA-NH2; thioether N-14),0.07 µM
3,Cc1cccc(C[C@@H]2NC(=O)[C@H](CC(=O)O)NC(=O)[C@H](Cc3ccc(OCC(=O)O)cc3)NC(=O)[C@H](Cc3ccncc3)NC(=O)CSC[C@@H](C(=O)N[C@@H](CCNC(=O)C(C)(C)C)C(N)=O)NC(=O)[C@H](Cc3cnc[nH]3)NC(=O)[C@H](C(C)(C)O)NC(=O)[C@H](CC3CCCCC3)NC(=O)[C@H](CCN)NC(=O)[C@@H](CC(C)C)NC(=O)[C@H](C)N(C)C(=O)[C@H](Cc3ccc(OCC(=O)O)cc3)NC(=O)[C@H](Cc3ccc(-c4ccccc4)cc3)NC(=O)[C@H](Cc3ccc(C(=O)O)cc3)NC2=O)c1 [Compound 2165] ({CH2CO}-[4Pal]Y(Carboxymethyl)D[Phe(3-Me)][Phe(4-COOH)][Bip]Y(Carboxymethyl)[NMeA][dL][Dab][Cha][Val(3-OH)]HC[Dab](Piv)-NH2; thioether N-14),0.04 µM
4,CC(C)C[C@@H]1NC(=O)[C@H](CCN)NC(=O)[C@@H](CC(C)C)NC(=O)[C@H](C)N(C)C(=O)[C@H](CCCNC(=N)N)NC(=O)[C@H](Cc2ccc(-c3ccccc3)cc2)NC(=O)[C@H](C(C)C)NC(=O)[C@H](Cc2c[nH]c3ccccc23)NC(=O)[C@H](CC(=O)O)NC(=O)[C@H](Cc2cccc(C#N)c2)NC(=O)[C@H](CN)NC(=O)CSC[C@@H](C(=O)N[C@@H](C)C(N)=O)NC(=O)[C@H]([C@@H](C)O)NC(=O)[C@H](C(C)C)NC1=O [Compound 1455] ({CH2CO}-[Dap][Phe(3-CN)]DWV[Bip]R[NMeA][dL][Dab]LVTCA-NH2; thioether N-14),0.08 µM
5,CCC(C)[C@@H]1NC(=O)[C@H](Cc2ccc(-c3ccccc3)cc2)NC(=O)[C@H](C(C)C)NC(=O)[C@H](Cc2c[nH]c3ccccc23)NC(=O)[C@H](CC(=O)O)NC(=O)[C@H](Cc2ccc(O)cc2)NC(=O)[C@H](CC(N)=O)NC(=O)CSC[C@@H](C(=O)N[C@@H](C)C(N)=O)NC(=O)[C@H](C(C)O)NC(=O)[C@H](C(C)C)NC(=O)[C@H](CC(C)C)NC(=O)[C@H](CCN)NC(=O)[C@@H](CC(C)C)NC(=O)[C@H](C)N(C)C1=O (stereo partly drawn) [Compound 2040] ({CH2CO}-NYDWV[Bip][Ile(3ξ)][NMeA][dL][Dab]LV[Thr(3ξ)]CA-NH2; thioether N-14),0.05 µM
6,CC(C)C[C@@H]1NC(=O)[C@H](Cc2c[nH]c3ccccc23)NC(=O)[C@H](CC(=O)O)NC(=O)[C@H](Cc2ccc(O)cc2)NC(=O)[C@H](Cc2ccccc2)NC(=O)CSC[C@@H](C(=O)NCC(N)=O)NC(=O)[C@H](CO)NC(=O)[C@H](C(C)C)NC(=O)[C@H](CC(C)C)NC(=O)[C@H](CC(N)=O)NC(=O)[C@H](CCCNC(N)=O)NC(=O)[C@H](C)N(C)C(=O)[C@H](C(C)C)NC(=O)[C@H](Cc2ccc(-c3ccccc3)cc2)NC1=O [Compound 1812] ({CH2CO}-FYDWL[Bip]V[NMeA][Cit]NLVSCG-NH2; thioether N-14),0.28 µM
7,CC[C@H](C)[C@@H]1NC(=O)[C@H](Cc2ccc(-c3ccccc3)cc2)NC(=O)[C@H](C(C)(C)O)NC(=O)[C@H](Cc2cccc(C)c2)NC(=O)[C@H](CC(=O)O)NC(=O)[C@H](Cc2ccc(O)cc2)NC(=O)[C@H](CC(N)=O)NC(=O)CSC[C@@H](C(=O)N[C@H](C)C(N)=O)NC(=O)[C@H]([C@@H](C)O)NC(=O)[C@H](C(C)(C)O)NC(=O)[C@H](CC2CCCCC2)NC(=O)[C@H](CCN)NC(=O)[C@@H](CC(C)C)NC(=O)[C@H](C)N(C)C1=O [Compound 1694] ({CH2CO}-NYD[Phe(3-Me)][Val(3-OH)][Bip]I[NMeA][dL][Dab][Cha][Val(3-OH)]TC[dA]-NH2; thioether N-14),0.1 µM
8,CC(C)C[C@@H]1NC(=O)[C@H](CCCNC(=N)N)NC(=O)[C@@H](CC(C)C)NC(=O)[C@H](C)N(C)C(=O)[C@H](CCCN)NC(=O)[C@H](Cc2ccc(-c3ccccc3)cc2)NC(=O)[C@H](C(C)C)NC(=O)[C@H](Cc2c[nH]c3ccccc23)NC(=O)[C@H](CC(=O)O)NC(=O)[C@H](Cc2ccc(O)cc2)NC(=O)[C@H](Cc2ccccc2)NC(=O)CSC[C@@H](C(=O)N[C@@H](C)C(N)=O)NC(=O)[C@H]([C@@H](C)O)NC(=O)[C@H](C(C)C)NC1=O [Compound 1123] ({CH2CO}-FYDWV[Bip][Orn][NMeA][dL]RLVTCA-NH2; thioether N-14),0.06 µM
9,Cc1cccc(C[C@@H]2NC(=O)[C@H](CC(=O)O)NC(=O)[C@H](Cc3ccc(O)cc3)NC(=O)[C@H](CC(N)=O)NC(=O)CSC[C@@H](C(=O)N[C@H](C)C(N)=O)NC(=O)[C@H]([C@@H](C)O)NC(=O)[C@H](C(C)(C)O)NC(=O)[C@H](CC3CCCCC3)NC(=O)[C@H](CCN)NC(=O)[C@@H](CC(C)C)NC(=O)[C@H](C)N(C)C(=O)[C@H](CCCNC(N)=O)NC(=O)[C@H](Cc3ccc(-c4ccccc4)cc3)NC(=O)[C@H](C(C)(C)O)NC2=O)c1 [Compound 1706] ({CH2CO}-NYD[Phe(3-Me)][Val(3-OH)][Bip][Cit][NMeA][dL][Dab][Cha][Val(3-OH)]TC[dA]-NH2; thioether N-14),0.12 µM
10,CC[C@H](C)[C@@H]1NC(=O)[C@H](Cc2ccc(-c3ccccc3)cc2)NC(=O)[C@H](C(C)(C)O)NC(=O)[C@H](Cc2cccc(C)c2)NC(=O)[C@H](CC(=O)O)NC(=O)[C@H](Cc2ccc(O)cc2)NC(=O)[C@H](CC(N)=O)NC(=O)CSC[C@@H](C(=O)N[C@@H](CCN)C(N)=O)NC(=O)[C@H]([C@@H](C)O)NC(=O)[C@H](C(C)(C)O)NC(=O)[C@H](CC2CCCCC2)NC(=O)[C@H](CCN)NC(=O)[C@@H](CC(C)C)NC(=O)[C@H](C)N(C)C1=O [Compound 1693] ({CH2CO}-NYD[Phe(3-Me)][Val(3-OH)][Bip]I[NMeA][dL][Dab][Cha][Val(3-OH)]TC[Dab]-NH2; thioether N-14),0.02 µM
11,Cc1cccc(C[C@@H]2NC(=O)[C@H](CC(=O)O)NC(=O)[C@H](Cc3ccc(C(=O)O)cc3)NC(=O)[C@H](Cc3ccc(OCC(=O)O)cc3)NC(=O)CSC[C@@H](C(=O)N[C@@H](CCC(=O)O)C(N)=O)NC(=O)[C@H](CO)NC(=O)[C@H](C(C)C)NC(=O)[C@H](CC(C)C)NC(=O)[C@H](CC(N)=O)NC(=O)[C@@H](CC(C)C)NC(=O)[C@H](C)N(C)C(=O)[C@H](C(C)C)NC(=O)[C@H](Cc3ccc(-c4ccccc4)cc3)NC(=O)[C@H](CC(C)C)NC2=O)c1 [Compound 1604] ({CH2CO}-Y(Carboxymethyl)[Phe(4-COOH)]D[Phe(3-Me)]L[Bip]V[NMeA][dL]NLVSCE-NH2; thioether N-14),0.01 µM
12,CC(=O)NCCCC[C@@H]1NC(=O)[C@H](C(C)C)NC(=O)[C@H](CC2CCCCC2)NC(=O)[C@H](CCN)NC(=O)[C@@H](CC(C)C)NC(=O)[C@H](C)N(C)C(=O)[C@H](CC(N)=O)NC(=O)[C@H](Cc2ccc(-c3ccccc3)cc2)NC(=O)[C@H](C(C)C)NC(=O)[C@H](Cc2cccc(C)c2)NC(=O)[C@H](CC(=O)O)NC(=O)[C@H](Cc2ccc(OCC(=O)O)cc2)NC(=O)[C@H](Cc2ccc(OCC(=O)O)cc2)NC(=O)CSC[C@@H](C(N)=O)NC1=O [Compound 2263] ({CH2CO}-Y(Carboxymethyl)Y(Carboxymethyl)D[Phe(3-Me)]V[Bip]N[NMeA][dL][Dab][Cha]VK(Ac)C-NH2; thioether N-14),0.01 µM
13,CC(C)C[C@@H]1NC(=O)[C@H](CCCN)NC(=O)[C@@H](CC(C)C)NC(=O)[C@H](C)N(C)C(=O)[C@H](CCCNC(=N)N)NC(=O)[C@H](Cc2ccc(-c3ccccc3)cc2)NC(=O)[C@H](C(C)C)NC(=O)[C@H](Cc2c[nH]c3ccccc23)NC(=O)[C@H](CC(=O)O)NC(=O)[C@H](Cc2ccc(OCC(=O)O)cc2)NC(=O)[C@H](Cc2cnc[nH]2)NC(=O)CSC[C@@H](C(=O)N[C@@H](C)C(N)=O)NC(=O)[C@H]([C@@H](C)O)NC(=O)[C@H](C(C)C)NC1=O [Compound 1148] ({CH2CO}-HY(Carboxymethyl)DWV[Bip]R[NMeA][dL][Orn]LVTCA-NH2; thioether N-14),0.05 µM
14,CCC(C)[C@@H]1NC(=O)[C@H](Cc2ccc(-c3ccccc3)cc2)NC(=O)[C@H](CC(C)C)NC(=O)[C@H](Cc2c[nH]c3ccccc23)NC(=O)[C@H](CC(=O)O)NC(=O)[C@H](Cc2ccc(OCC(=O)O)cc2)NC(=O)[C@H](C(C)O)NC(=O)CSC[C@@H](C(=O)N[C@@H](CC(N)=O)C(=O)O)NC(=O)[C@H](CN)NC(=O)[C@H](C(C)C)NC(=O)[C@H](CC(C)C)NC(=O)[C@H](CCN)NC(=O)[C@@H](CC(C)C)NC(=O)[C@H](C)N(C)C1=O (stereo partly drawn) [Compound 2228] ({CH2CO}-[Thr(3ξ)]Y(Carboxymethyl)DWL[Bip][Ile(3ξ)][NMeA][dL][Dab]LV[Dap]CN-OH; thioether N-14),0.12 µM
15,CC(C)C[C@@H]1NC(=O)[C@H](CCCNC(=N)N)NC(=O)[C@H](Cc2cn(CC(=O)O)c3ccccc23)NC(=O)[C@H](C)N(C)C(=O)[C@H](CCCNC(=N)N)NC(=O)[C@H](Cc2ccc(-c3ccccc3)cc2)NC(=O)[C@H](C(C)C)NC(=O)[C@H](Cc2c[nH]c3ccccc23)NC(=O)[C@H](CC(=O)O)NC(=O)[C@H](Cc2ccc(O)cc2)NC(=O)[C@H](Cc2ccccc2)NC(=O)CSC[C@@H](C(=O)NCC(N)=O)NC(=O)[C@H](CO)NC(=O)[C@H](C(C)C)NC1=O [Compound 1011] ({CH2CO}-FYDWV[Bip]R[NMeA][Trp(1-CH2COOH)]RLVSCG-NH2; thioether N-14),0.1 µM
